Measured values reported in the NIST ThermoML archive (doi:10.1021/acs.jced.7b00483).
Numbers after ± are expanded uncertainties.

Assay: molar heat capacity at constant pressure; mn = molality of the nth substance listed, in mol/kg
Conditions: 100 kPa, Liquid, Flow calorimetry

[Cl][Ni][Cl] [nickel chloride (NiCl2)] + O
molar heat capacity at constant pressure [J/K/mol]
Conditions	298.15 K	303.15 K	313.15 K	323.15 K	333.15 K	343.15 K	353.15 K	363.15 K
m1 = 0.1432	74.53 ± 0.77	74.56 ± 0.77	74.64 ± 0.77	74.73 ± 0.77	74.84 ± 0.77	74.97 ± 0.77	75.09 ± 0.77	75.24 ± 0.77
m1 = 0.3571	73.64 ± 0.75	73.75 ± 0.75	73.98 ± 0.75	74.17 ± 0.75	74.3 ± 0.77	74.41 ± 0.77	74.48 ± 0.77	74.5 ± 0.77
m1 = 0.7035	72.08 ± 0.74	72.41 ± 0.74	72.91 ± 0.74	73.42 ± 0.76	73.73 ± 0.76	73.92 ± 0.76	73.96 ± 0.76	73.88 ± 0.76
m1 = 0.9968	70.92 ± 0.72	71.28 ± 0.72	71.88 ± 0.74	72.38 ± 0.74	72.74 ± 0.74	72.98 ± 0.74	73.12 ± 0.74	73.12 ± 0.74
m1 = 1.24	70.61 ± 0.72	70.99 ± 0.72	71.67 ± 0.74	72.22 ± 0.74	72.63 ± 0.74	72.92 ± 0.74	73.06 ± 0.74	73.08 ± 0.74
m1 = 1.53	70.09 ± 0.71	70.49 ± 0.71	71.18 ± 0.74	71.73 ± 0.74	72.15 ± 0.74	72.44 ± 0.74	72.59 ± 0.74	72.59 ± 0.74
m1 = 1.874	69.74 ± 0.71	70.16 ± 0.71	70.89 ± 0.71	71.5 ± 0.74	71.93 ± 0.74	72.23 ± 0.74	72.41 ± 0.74	72.45 ± 0.74
m1 = 2.241	69.49 ± 0.72	69.96 ± 0.72	70.74 ± 0.72	71.39 ± 0.72	71.88 ± 0.74	72.2 ± 0.74	72.37 ± 0.74	72.4 ± 0.74
m1 = 2.608	69.48 ± 0.71	69.99 ± 0.71	70.89 ± 0.71	71.63 ± 0.74	72.2 ± 0.74	72.64 ± 0.74	72.89 ± 0.74	72.98 ± 0.74
m1 = 3.614	69.27 ± 0.7	69.86 ± 0.72	70.88 ± 0.72	71.73 ± 0.72	72.42 ± 0.75	72.94 ± 0.75	73.29 ± 0.75	73.49 ± 0.75
m1 = 4.102	69.42 ± 0.69	70.04 ± 0.72	71.12 ± 0.72	72.02 ± 0.72	72.69 ± 0.75	73.18 ± 0.75	73.48 ± 0.75	73.56 ± 0.75

[Cl][Cu][Cl] [copper chloride] + O
molar heat capacity at constant pressure [J/K/mol]
Conditions	298.15 K	303.15 K	313.15 K	323.15 K	333.15 K	343.15 K	353.15 K	363.15 K
m1 = 0.2971	74.06 ± 0.75	74.34 ± 0.76	74.86 ± 0.76	75.29 ± 0.76	75.6 ± 0.76	75.85 ± 0.76	75.98 ± 0.78	76.05 ± 0.78
m1 = 0.5433	73.82 ± 0.75	74.14 ± 0.75	74.68 ± 0.77	75.1 ± 0.77	75.41 ± 0.77	75.6 ± 0.77	75.69 ± 0.77	75.68 ± 0.77
m1 = 0.7083	73.51 ± 0.74	73.84 ± 0.76	74.42 ± 0.76	74.85 ± 0.76	75.16 ± 0.76	75.34 ± 0.76	75.34 ± 0.76	75.3 ± 0.76
m1 = 1.018	73.01 ± 0.74	73.37 ± 0.74	74 ± 0.74	74.48 ± 0.76	74.86 ± 0.76	75.1 ± 0.76	75.24 ± 0.76	75.22 ± 0.76
m1 = 1.448	72.53 ± 0.73	72.93 ± 0.73	73.62 ± 0.76	74.19 ± 0.76	74.61 ± 0.76	74.9 ± 0.76	75.05 ± 0.76	75.05 ± 0.76
m1 = 1.899	72.05 ± 0.72	72.47 ± 0.74	73.19 ± 0.74	73.8 ± 0.74	74.24 ± 0.74	74.59 ± 0.77	74.74 ± 0.77	74.78 ± 0.77
m1 = 2.012	72.27 ± 0.73	72.71 ± 0.73	73.51 ± 0.75	74.13 ± 0.75	74.61 ± 0.75	74.94 ± 0.75	75.12 ± 0.75	75.12 ± 0.75
m1 = 2.424	72.23 ± 0.73	72.74 ± 0.73	73.63 ± 0.76	74.38 ± 0.76	74.96 ± 0.76	75.37 ± 0.76	75.64 ± 0.78	75.73 ± 0.78
m1 = 2.954	72.36 ± 0.74	72.91 ± 0.74	73.85 ± 0.74	74.59 ± 0.76	75.16 ± 0.76	75.52 ± 0.76	75.71 ± 0.76	75.71 ± 0.76
m1 = 3.454	72.47 ± 0.75	73.05 ± 0.75	74.06 ± 0.75	74.93 ± 0.77	75.63 ± 0.77	76.15 ± 0.77	76.52 ± 0.77	76.67 ± 0.77
m1 = 4.036	72.69 ± 0.73	73.32 ± 0.75	74.4 ± 0.75	75.31 ± 0.75	76.01 ± 0.78	76.5 ± 0.78	76.79 ± 0.78	76.89 ± 0.78
m1 = 4.452	72.71 ± 0.75	73.37 ± 0.75	74.54 ± 0.75	75.48 ± 0.77	76.17 ± 0.77	76.62 ± 0.77	76.81 ± 0.77	76.78 ± 0.77
